Patent publication US7879887B2, “α-amino acid derivatives and medicaments containing the same as an active ingredient” (Nissan Chemical Industries, Ltd., priority 2006, dated 2011)

Assays:
Aurora A = molecular target: T1, Aurora A (Homo sapiens, UniProt O14965); experiment: In vitro kinase assay, Aurora A; type: biochemical; conditions: recombinant protein (Upstate)
T1 construct: purchased Upstate Inc. 14-511
T1 sequence (O14965 1-403): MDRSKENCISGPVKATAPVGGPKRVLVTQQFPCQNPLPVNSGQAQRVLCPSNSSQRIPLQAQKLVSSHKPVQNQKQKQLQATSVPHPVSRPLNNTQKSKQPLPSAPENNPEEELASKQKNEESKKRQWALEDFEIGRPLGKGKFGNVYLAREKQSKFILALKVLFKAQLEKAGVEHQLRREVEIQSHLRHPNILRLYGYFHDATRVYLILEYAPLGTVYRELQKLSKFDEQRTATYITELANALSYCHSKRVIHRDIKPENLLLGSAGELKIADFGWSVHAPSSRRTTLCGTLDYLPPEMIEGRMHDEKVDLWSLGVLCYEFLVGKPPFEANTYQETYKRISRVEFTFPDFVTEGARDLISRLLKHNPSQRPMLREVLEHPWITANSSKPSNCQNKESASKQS
Summary of the method: (§1)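 Recombinant human enzymes assayed per supplier protocol. IC50 derived with compound-free wells set as 0% inhibition and compound- and enzyme-free wells as 100% inhibition.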

CDK1/Cyclin B complex = molecular target: T2, CDK1/Cyclin B complex (Homo sapiens, UniProt P06493); experiment: In vitro kinase assay, CDK1/Cyclin B complex; type: biochemical; conditions: recombinant protein (Upstate)
T2 construct: purchased Upstate Inc. 14-450
T2 sequence (P06493 whole entry): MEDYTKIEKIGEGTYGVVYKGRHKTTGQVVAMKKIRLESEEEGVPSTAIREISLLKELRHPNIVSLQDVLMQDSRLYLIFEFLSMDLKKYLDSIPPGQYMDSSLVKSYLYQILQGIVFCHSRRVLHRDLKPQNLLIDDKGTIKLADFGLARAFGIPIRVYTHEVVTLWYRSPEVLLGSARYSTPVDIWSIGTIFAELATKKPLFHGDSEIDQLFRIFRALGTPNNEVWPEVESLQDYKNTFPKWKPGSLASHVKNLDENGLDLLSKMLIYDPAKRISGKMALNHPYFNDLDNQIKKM
T2 sequence (P14635 whole entry partner): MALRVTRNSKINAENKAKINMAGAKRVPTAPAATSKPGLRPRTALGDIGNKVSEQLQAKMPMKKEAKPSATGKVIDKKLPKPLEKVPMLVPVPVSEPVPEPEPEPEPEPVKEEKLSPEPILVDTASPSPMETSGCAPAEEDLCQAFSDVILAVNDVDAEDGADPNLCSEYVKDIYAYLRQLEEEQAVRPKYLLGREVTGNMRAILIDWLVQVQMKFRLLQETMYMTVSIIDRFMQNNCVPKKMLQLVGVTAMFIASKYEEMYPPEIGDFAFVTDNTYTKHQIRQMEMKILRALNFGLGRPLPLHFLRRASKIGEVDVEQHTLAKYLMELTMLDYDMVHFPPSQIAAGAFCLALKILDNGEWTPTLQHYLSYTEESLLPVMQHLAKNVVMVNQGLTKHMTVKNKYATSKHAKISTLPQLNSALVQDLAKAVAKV
Summary of the method: as §1

CDK2/Cyclin E complex = CDK2/Cyclin E complex (Homo sapiens, UniProt P24941); experiment: In vitro kinase assay, CDK2/Cyclin E complex; type: biochemical; conditions: recombinant protein (Upstate); read-out: CDK2/cyclinE IC50
Experimental: Inhibitory activity against Aurora A, CDK1/Cyclin B complex, CDK2/Cyclin E complex and CDK3/Cyclin E complex were measured by in vitro kinase assay using recombinant proteins.

[1] = test system: colon carcinoma cell line SW620; experiment: Cell proliferation inhibitory activity, SW620; type: cell-based, human; conditions: Homo sapiens, SW-620, 96 h, cells counted 4 days later with Cell Counting Kit-8
Summary of the method: (§2)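 Read-out: Cell Counting Kit-8 cell counts taken 4 days after cells in medium were added to graded test-substance concentrations. Incubation was at 37° C under 5% CO2. IC50 values were based on vehicle wells set to 0% inhibition and wells lacking compound and cells set to 100%.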

[2] = test system: breast cancer cell line MDA-MB-231; experiment: Cell proliferation inhibitory activity, MDA-MB-231; type: cell-based; conditions: Homo sapiens, 96 h, cells counted 4 days later with Cell Counting Kit-8
Experimental: (§3) Evaluations were carried out using colon carcinoma cell line SW620 (Cat. No. CCL-227), lung carcinoma cell line NCI-H460 (Cat. No. HTB-177), prostate cancer cell line DU 145 (Cat. No. HTB-81), breast cancer cell line MDA-MB-231 (Cat. No. HTB26) and leukemia cell line KG-1a (Cat. No. CCL-246.1) purchased from ATCC, pancreatic cancer cell line MIAPaCa-2 (Cat. No. CRL-1420) purchased from Dainippon Pharmaceutical, and ovarian cancer cell line IGROV1 received from the Netherland Cancer Institute. The cells were cultured under the conditions recommended by the supplier for each cell line, or with respect to IGROV1, according to the method described in Cancer Res. 59: 4559-4563, 1999. Cells suspended in media were added to solutions containing the test substances at various concentrations followed by culturing in a 5% CO2 incubator at 37° C. The numbers of cells were counted 4 days later with the Cell Counting Kit-8. IC50 values were calculated by assigning measured values in the case of not containing a test substance to an inhibition of 0%, and assigning measured values in the case of not containing a test substance or cells to an inhibition of 100%.

[3] = test system: ovarian cancer cell line IGROV1; experiment: Cell proliferation inhibitory activity, IGROV1; type: cell-based; conditions: Homo sapiens, IGROV-1, 96 h, cells counted 4 days later with Cell Counting Kit-8
Experimental: as §3

leukemia cell line KG-1a = experiment: Cell proliferation inhibitory activity, KG-1a; type: cell-based; conditions: Homo sapiens, 96 h, cells counted 4 days later with Cell Counting Kit-8
Summary of the method: as §2

[4] = test system: pancreatic cancer cell line MIAPaCa-2; experiment: Cell proliferation inhibitory activity, MIAPaCa-2; type: cell-based; conditions: Homo sapiens, MIA PaCa-2, 96 h; cells counted 4 days later, Cell Counting Kit-8
Experimental: as §3

[5] = test system: prostate cancer cell line DU 145; experiment: Cell proliferation inhibitory activity, DU 145; type: cell-based, human; conditions: Homo sapiens, 96 h, cells counted 4 days later with Cell Counting Kit-8
Summary of the method: as §2

[6] = test system: lung carcinoma cell line NCI-H460; experiment: Cell proliferation inhibitory activity, NCI-H460; type: cell-based; conditions: Homo sapiens, 96 h, cells counted 4 days later with Cell Counting Kit-8
Summary of the method: as §2

Compound | IC50 (Aurora A) [nM] | IC50 (CDK1/Cyclin B complex) [nM] | IC50 (CDK2/Cyclin E complex) [nM] | IC50 [1] [nM] | IC50 [2] [nM] | IC50 [3] [nM] | IC50 (leukemia cell line KG-1a) [nM] | IC50 [4] [nM] | IC50 [5] [nM] | IC50 [6] [nM]
O=C(CNc1ccc(Cl)c(O)c1)Nc1nc2ccc3[nH]ncc3c2s1 [compound 6] | 257 | 255 | 26 | 1500 | 2600 | 4300 | < 100 | – | – | –
CC(=O)Nc1cc(NCC(=O)Nc2nc3ccc4[nH]ncc4c3s2)ccc1Cl [compound 16] | 278 | – | 37 | 1200 | 4400 | – | < 100 | 4400 | 3200 | 3200
CC(C)(Nc1cccc(O)c1)C(=O)Nc1nc2ccc3[nH]ncc3c2s1 [compound 33] | 29 | 115 | 33 | 400 | 2000 | 2700 | < 100 | 4500 | 1700 | 3600
CC(C)(Nc1ccc(Cl)cc1)C(=O)Nc1nc2ccc3[nH]ncc3c2s1 [compound 35] | 428 | – | 45 | 700 | – | – | < 100 | – | 2500 | –
CC(=O)Nc1cc(NC(C)(C)C(=O)Nc2nc3c(C(F)(F)F)cc4[nH]ncc4c3s2)ccc1Cl [compound 53] | 227 | 420 | 51 | 1300 | 4000 | – | 300 | 4700 | 1500 | 2400
CNC(=O)c1cc(NC(C)(C)C(=O)Nc2nc3c(C(F)(F)F)cc4[nH]ncc4c3s2)ccc1Cl [compound 55] | 185 | 73 | 44 | 300 | 3200 | 2700 | < 100 | 4100 | 900 | 800
CCNC(=O)c1cc(NC(C)(C)C(=O)Nc2nc3c(C(F)(F)F)cc4[nH]ncc4c3s2)ccc1F [compound 58] | – | 186 | 107 | 500 | 4700 | – | 300 | 4000 | 900 | 1300
CCNC(=O)c1cc(NC(C)(C)C(=O)Nc2nc3c(C(F)(F)F)cc4[nH]ncc4c3s2)ccc1Cl [compound 60] | 163 | 73 | 37 | 300 | 4500 | – | 300 | 4400 | 900 | 1500
CC(C)(Nc1ccc(Cl)c(C(=O)NC2CC2)c1)C(=O)Nc1nc2c(C(F)(F)F)cc3[nH]ncc3c2s1 [compound 75] | 472 | 128 | 131 | 500 | 3600 | – | < 100 | 3900 | 1100 | 2000
CC(=O)Nc1cc(NC(C)(C)C(=O)Nc2nc3c(C(F)(F)F)cc4[nH]ncc4c3s2)ccc1F [compound 81] | 444 | 377 | 93 | 800 | 4200 | 2400 | < 100 | 4700 | 1100 | 1300
CC(C)(Nc1cccc(S(N)(=O)=O)c1)C(=O)Nc1nc2c(C(F)(F)F)cc3[nH]ncc3c2s1 [compound 82] | 14 | 20 | 15 | 200 | 2100 | 900 | < 100 | 2500 | 400 | 400
CC(C)(Nc1ccc(Cl)c(C(=O)NCC(N)=O)c1)C(=O)Nc1nc2c(C(F)(F)F)cc3[nH]ncc3c2s1 [compound 85] | 71 | 1.8 | 2.4 | 300 | 2500 | 1800 | < 100 | 1800 | 1300 | 1200
CC(C)(Nc1ccc(Cl)c(O)c1)C(=O)Nc1nc2c(C(F)(F)F)cc3[nH]ncc3c2s1 [compound 95] | 340 | 105 | 23 | 400 | – | – | 100 | 4600 | 1100 | 1200
O=C(Nc1nc2ccc3[nH]ncc3c2s1)C1(Nc2ccc(Cl)cc2)CC1 [compound 117] | 317 | 358 | 19 | 500 | 2500 | 2700 | < 100 | – | 2200 | 2800
CCOC(=O)c1cc(NC2(C(=O)Nc3nc4ccc5[nH]ncc5c4s3)CC2)ccc1Cl [compound 118] | 236 | – | 116 | 2000 | – | – | < 100 | – | – | –
CC(=O)Nc1cc(NC2(C(=O)Nc3nc4ccc5[nH]ncc5c4s3)CC2)ccc1F [compound 120] | 164 | – | 64 | 800 | – | 4800 | < 100 | – | 3300 | 1900
CCC(=O)Nc1cc(NC2(C(=O)Nc3nc4ccc5[nH]ncc5c4s3)CC2)ccc1F [compound 121] | 307 | – | 110 | 500 | – | 4800 | < 100 | 4600 | 3400 | 2200
CNC(=O)c1cc(NC2(C(=O)Nc3nc4ccc5[nH]ncc5c4s3)CC2)ccc1Cl [compound 126] | 58 | 145 | 39 | 1500 | – | – | < 100 | – | 3700 | 4200
CC(=O)Nc1cc(NC(C)(C)C(=O)Nc2nc3ccc4[nH]ncc4c3s2)ccc1Cl [compound 128] | 39 | – | 28 | 900 | 4600 | 3500 | < 100 | 3200 | 1700 | 1100
CCC(=O)Nc1cc(NC(C)(C)C(=O)Nc2nc3ccc4[nH]ncc4c3s2)ccc1Cl [compound 129] | 113 | – | 86 | 800 | – | 4800 | < 100 | – | 2600 | 2700
O=C(Nc1nc2ccc3[nH]ncc3c2s1)C(CO)Nc1ccc(Cl)cc1 (stereo not shown) [compound 132] | – | 379 | 20 | 600 | 1900 | 1400 | < 100 | 3700 | 1400 | 1700
CC(C)(Nc1ccc(Cl)c(C(N)=O)c1)C(=O)Nc1nc2c(C(F)(F)F)cc3[nH]ncc3c2s1 [compound 135] | 40 | 83 | 52 | 300 | 1600 | 1500 | < 100 | 4100 | 500 | 900
CC(C)(Nc1ccc(Cl)c(C(=O)NCCCC(=O)O)c1)C(=O)Nc1nc2c(C(F)(F)F)cc3[nH]ncc3c2s1 [compound 144] | 88 | 297 | 249 | 3300 | – | – | – | – | – | –
